Source: patent publication US20030027870A1, “Fullerene derivatives that modulate nitric oxide synthase and clamodulin activity” (priority 2001, published 2003)

Assays:
[1] = target: T1, nNOS (Rattus norvegicus, UniProt P29476); test: NO formation assay (oxyhemoglobin to methemoglobin), nNOS; format: biochemical; details: multisite, positively cooperative inhibition of nNOS NO formation
T1 construct: endogenous in cells; host or cells: rat GH3 pituitary cells; enzyme purified on 2',5'-ADP-agarose and calmodulin-Affi Gel 15 agarose
Description: (§1) Neuronal NOS was purified from rat GH3 pituitary cells grown in Ham's F-10 supplemented with 12.5% horse serum and 3% fetal bovine serum. Cells were homogenized in 5 volumes of 50 mM Mops, pH 7.4, 1 mM EGTA, 1 mM DTT, 100 mM NaCl, 0.5% CHAPSO, 50 μM BH4, 100 μM leupeptin, and 10 μM E64. A postmitochondrial supernatant fraction was generated by centrifugation and was affinity-purified on 2′,5′ADP-agarose as reported previously (Wolff, D. J. and Datto, G. (1992) Biochem. J. 284:201-206). The affinity-purified proteins were eluted with 50 mM Mops, pH 7.4, 1 mM EGTA, 1 mM DTT, 5 mM NADPH, 0.1% CHAPSO, 150 mM NaCl, 50 μM BH4, 100 μM leupeptin, and 10 μM E64. […] Fractions containing nNOS as determined by citrulline formation assay were concentrated with a Centriprep 30 (Amicon).
Nitric oxide production over time was measured spectrophotometrically at 401 nm by the conversion of oxyhemoglobin to methemoglobin (Noack, E. et al. (1992) Neuroprotocols 1:133-139). […] Methemoglobin formation was monitored against a reference cuvette containing complete reaction mixture without enzyme. NO production was calculated using an extinction coefficient of 38 mM^−1 cm^−1 (Noack et al.,1992).

[2] = target: T1, nNOS; test: Citrulline formation assay, nNOS; format: biochemical; details: read-out: IC50 for Inhibition of Citrulline Formation
Description: as §1
Citrulline formation by NOS isoforms was measured in 150 μL reaction mixtures containing 30 mM Hepes, pH 7.5, 1 mM DTT, 120 nM L-[2,3-^3H]-arginine without or with unlabeled arginine, 1 mM EGTA, 0.85 mM Ca^2+ (when present), 6 μM CaM (calmodulin, when present), 100 μM NADPH, and 300 μM BH4. Incubations were initiated by the addition of enzyme and reaction mixtures incubated for 30 min at 30° C. in duplicate and reactions stopped and analyzed as described by Wolff and Datto (Wolff and Datto, 1992). […]

[3] = target: T2, iNOS (Mus musculus, UniProt P29477); test: Citrulline formation assay, iNOS; format: biochemical, murine; details: read-out: IC50 for Inhibition of Citrulline Formation
T2 construct: Expression of iNOS was induced with 5 μg/mL of Escherichia coli lipopolysaccharide and 50 units/mL of mouse γ-interferon; endogenous in cells; host or cells: RAW 264.7 macrophages induced with LPS and interferon-gamma; enzyme purified on 2',5'-ADP-agarose and DEAE-cellulose
Description: Cytokine-inducible NOS was purified from murine RAW 264.7 macrophages grown in DMEM/Hepes, pH 7.5, supplemented with 10% fetal bovine serum. Expression of iNOS was induced with 5 μg/mL of Escherichia coli lipopolysaccharide and 50 units/mL of mouse γ-interferon. Homogeneous preparation of the iNOS was obtained through sequential purification on 2′,5′-ADP-agarose and DEAE-cellulose as described previously (Bryk, R. and Wolff, R. (1998) Biochemistry 37:4844-4852). Purified iNOS was about 95% pure as judged by a Coomassie-stained SDS-PAGE.
(§2) Citrulline formation by NOS isoforms was measured in 150 μL reaction mixtures containing 30 mM Hepes, pH 7.5, 1 mM DTT, 120 nM L-[2,3-^3H]-arginine without or with unlabeled arginine, 1 mM EGTA, 0.85 mM Ca^2+ (when present), 6 μM CaM (calmodulin, when present), 100 μM NADPH, and 300 μM BH4. Incubations were initiated by the addition of enzyme and reaction mixtures incubated for 30 min at 30° C. in duplicate and reactions stopped and analyzed as described by Wolff and Datto (Wolff and Datto, 1992). When citrulline formation was measured as a function of CaM concentration 1.5 mM Ca^2+ was employed in the assay Assay of NADPH-Oxidase Activity.

[4] = target: T1, nNOS; test: Cytochrome c reductase assay of nNOS; format: biochemical; details: at concentrations as high as 300 μM
Description: Neuronal NOS was purified from rat GH3 pituitary cells grown in Ham's F-10 supplemented with 12.5% horse serum and 3% fetal bovine serum. Cells were homogenized in 5 volumes of 50 mM Mops, pH 7.4, 1 mM EGTA, 1 mM DTT, 100 mM NaCl, 0.5% CHAPSO, 50 μM BH4, 100 μM leupeptin, and 10 μM E64. A postmitochondrial supernatant fraction was generated by centrifugation and was affinity-purified on 2′,5′ADP-agarose as reported previously (Wolff, D. J. and Datto, G. (1992) Biochem. J. 284:201-206). The affinity-purified proteins were eluted with 50 mM Mops, pH 7.4, 1 mM EGTA, 1 mM DTT, 5 mM NADPH, 0.1% CHAPSO, 150 mM NaCl, 50 μM BH4, 100 μM leupeptin, and 10 μM E64. The eluate was adjusted to contain 2.5 mM Ca^2+ and was adsorbed to a calmodulin-Affi Gel 15 agarose column equilibrated in 50 mM Mops, 1 mM EGTA, 2.5 mM Ca^2+ 0.1% CHAPSO, 150 mM NaCl, 25 μM arginine, 1 mM DTT, 50 μM BH4, 100 μM leupeptin, and 10 μM E64. […] Fractions containing nNOS as determined by citrulline formation assay were concentrated with a Centriprep 30 (Amicon).
The cytochrome c reductase activity of nNOS was determined as described previously, (Cooper et al. (2000) Arch. Biochem. Biophys. 375:183-194) in the presence of 1 mM EGTA, 2 mM Ca^2+, and 10 μg/ml CaM. An extinction coefficient of 21 mM^−1 cm^−1 (22) was used to quantify cytochrome c reduction.

[5] = target: T3, nNOS dimers (Rattus norvegicus, UniProt P29476); test: Sucrose density gradient centrifugation of nNOS; details: fully inhibitory concentrations
T3 construct: endogenous in cells; host or cells: rat GH3 pituitary cells
Description: Samples of nNOS were either unadjusted (control) or were adjusted to 50 μM C3-tris-malonyl-C60-fullerene and were applied to a 5-20% sucrose gradient containing 50 mM Mops, pH 7.4, 150 mM NaCl, 1 mM EGTA, 1 mM DTT, 0.3% CHAPSO, and 10 μM BH4, either without (control) or containing 50 μM C3-tris-malonyl-C60-fullerene. Gradients were run at 35,000 rpm for 18 h at 4° C. in an L5-L5 Beckman Ultracentrifuge using an SW41 rotor. Fractions (375 μL) were collected using an ISCO density gradient fractionator, Model 185. The fractions from the gradient were kept on ice and portions were assayed for cytochrome c reductase activity (measures both monomers and dimers) and citrulline forming activity (measures dimers exclusively). Hemoglobin (4.09S), catalyze (11.9S), and thyoglobulin (19.4S) were run in a separate tube as sedimentation markers.

[6] = target: T4, eNOS (Bos taurus, UniProt P29473); test: Citrulline formation assay, eNOS; format: biochemical, Bovine; details: read-out: IC50 for Inhibition of Citrulline Formation
T4 construct: Bovine pulmonary arterial endothelial NOS (ENOS) was prepared; from tissue; host or cells: bovine pulmonary arterial endothelium
Description: Bovine pulmonary arterial endothelial NOS (ENOS) was prepared and characterized as described previously (Wolff, D. J. et al. (1994) Arch. Biochem. Biophys. 312:360-366).
as §2

[7] = target: T1, nNOS; test: NADPH-oxidase activity (NADPH consumption) of nNOS; format: biochemical
Description: Neuronal NOS was purified from rat GH3 pituitary cells grown in Ham's F-10 supplemented with 12.5% horse serum and 3% fetal bovine serum. Cells were homogenized in 5 volumes of 50 mM Mops, pH 7.4, 1 mM EGTA, 1 mM DTT, 100 mM NaCl, 0.5% CHAPSO, 50 μM BH4, 100 μM leupeptin, and 10 μM E64. A postmitochondrial supernatant fraction was generated by centrifugation and was affinity-purified on 2′,5′ADP-agarose as reported previously (Wolff, D. J. and Datto, G. (1992) Biochem. J. 284:201-206). The affinity-purified proteins were eluted with 50 mM Mops, pH 7.4, 1 mM EGTA, 1 mM DTT, 5 mM NADPH, 0.1% CHAPSO, 150 mM NaCl, 50 μM BH4, 100 μM leupeptin, and 10 μM E64. The eluate was adjusted to contain 2.5 mM Ca^2+ and was adsorbed to a calmodulin-Affi Gel 15 agarose column equilibrated in 50 mM Mops, 1 mM EGTA, 2.5 mM Ca^2+ 0.1% CHAPSO, 150 mM NaCl, 25 μM arginine, 1 mM DTT, 50 μM BH4, 100 μM leupeptin, and 10 μM E64. The column was washed with equilibration buffer containing 500 mM NaCl but without arginine, and nNOS was eluted with equilibration buffer containing 2.5 mM EGTA but without Ca^2+ or arginine. Fractions containing nNOS as determined by citrulline formation assay were concentrated with a Centriprep 30 (Amicon).
Standard reaction mixtures of 1 mL volume in quartz cuvettes contained 50 mM Hepes, pH 7.4, 150 μM NADPH, 6 μM CaM, 1 mM EGTA, 0.85 mM Ca^2+ and 0.15 μM BH4. Reactions were initiated by the addition of nNOS enzyme and NADPH consumption was measured from the change in light absorbance at 340 nm as compared to an identical reference cuvette without enzyme using an extinction coefficient of 6.22 mM^−1 cm^−1.

[8] = target: T5, nNOS; test: CaM antagonists inhibiting citrulline formation by nNOS at 6 nM CaM; format: biochemical, rat; details: 30-min incubation
T5 construct: Bovine brain calmodulin was prepared; endogenous in cells; host or cells: rat GH3 pituitary cells (nNOS); bovine brain (calmodulin)
Description: Cells were homogenized in 5 volumes of 50 mM Mops, pH 7.4, 1 mM EGTA, 1 mM DTT, 100 mM NaCl, 0.5% CHAPSO, 50 μM BH4, 100 μM leupeptin, and 10 μM E64. […] Fractions containing nNOS as determined by citrulline formation assay were concentrated with a Centriprep 30 (Amicon).

T3 sequence (P29476 whole entry): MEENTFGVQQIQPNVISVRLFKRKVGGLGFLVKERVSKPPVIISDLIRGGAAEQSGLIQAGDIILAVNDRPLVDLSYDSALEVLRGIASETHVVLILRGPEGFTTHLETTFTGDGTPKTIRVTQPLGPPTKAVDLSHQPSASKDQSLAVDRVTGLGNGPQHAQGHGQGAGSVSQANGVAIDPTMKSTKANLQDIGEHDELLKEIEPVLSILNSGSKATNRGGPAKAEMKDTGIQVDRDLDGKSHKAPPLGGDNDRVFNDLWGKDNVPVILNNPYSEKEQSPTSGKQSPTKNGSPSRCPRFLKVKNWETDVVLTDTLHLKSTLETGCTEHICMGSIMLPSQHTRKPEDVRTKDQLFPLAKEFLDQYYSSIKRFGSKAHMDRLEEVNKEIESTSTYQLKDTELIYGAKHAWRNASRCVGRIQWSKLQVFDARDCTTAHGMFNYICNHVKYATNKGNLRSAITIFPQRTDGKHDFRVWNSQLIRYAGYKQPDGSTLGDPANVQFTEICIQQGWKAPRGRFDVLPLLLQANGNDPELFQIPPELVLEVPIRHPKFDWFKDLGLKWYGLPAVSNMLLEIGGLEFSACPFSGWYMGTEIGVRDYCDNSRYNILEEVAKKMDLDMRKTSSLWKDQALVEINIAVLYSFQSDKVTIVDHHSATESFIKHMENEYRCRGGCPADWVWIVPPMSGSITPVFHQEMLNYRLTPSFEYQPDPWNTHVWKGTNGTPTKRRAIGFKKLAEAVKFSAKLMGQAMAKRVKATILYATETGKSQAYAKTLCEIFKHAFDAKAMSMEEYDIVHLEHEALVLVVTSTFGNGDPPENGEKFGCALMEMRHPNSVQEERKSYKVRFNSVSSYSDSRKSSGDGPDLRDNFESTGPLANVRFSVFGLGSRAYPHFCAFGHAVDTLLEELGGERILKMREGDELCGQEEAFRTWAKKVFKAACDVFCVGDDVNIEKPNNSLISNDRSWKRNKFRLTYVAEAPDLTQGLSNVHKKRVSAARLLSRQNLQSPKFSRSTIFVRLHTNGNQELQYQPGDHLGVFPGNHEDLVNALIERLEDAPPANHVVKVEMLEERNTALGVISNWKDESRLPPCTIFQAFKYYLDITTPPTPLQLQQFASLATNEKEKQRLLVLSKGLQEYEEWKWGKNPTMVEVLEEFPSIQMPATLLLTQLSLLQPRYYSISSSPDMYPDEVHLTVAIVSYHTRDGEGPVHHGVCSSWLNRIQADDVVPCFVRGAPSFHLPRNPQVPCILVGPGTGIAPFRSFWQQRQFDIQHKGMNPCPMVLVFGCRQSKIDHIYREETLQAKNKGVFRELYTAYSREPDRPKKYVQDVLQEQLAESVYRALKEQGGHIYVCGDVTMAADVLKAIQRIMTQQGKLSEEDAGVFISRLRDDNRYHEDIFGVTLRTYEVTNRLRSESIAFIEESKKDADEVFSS

Compound	Hill coefficient of inhibition [1]	IC50 [2] [µM]	IC50 [3] [µM]	effects on cytochrome c reductase activity of nNOS [4]	dissociation of nNOS dimers into monomers [5]	IC50 [6] [µM]	inhibition of arginine-independent NADPH-oxidase activity of nNOS (in words) [7]	IC50 ([7]; arginine-independent) [µM]	IC50 [8] [µM]
1,2:18,36:31,32-Tris(methano)[60] fullerene-61, 61, 62, 62, 63, 63 hexa-carboxylic acid, (e,e,e) C3 symmetry isomer [C3-Tris malonyl adduct diacid]	2.0	24	123	no effects	did not produce a dissociation	17	inhibited	22	–
1,2:34,35:40,41-tris(methano)[60] fullerene-61, 61, 62, 62, 63, 63 hexacarboxylic acid, (trans-3, trans-3, trans-3) D3 symmetry isomer [D3-Tris malonyl adduct diacid]	–	86	317	–	–	143	inhibited	–	–
Clc1ccc(C(c2ccc(Cl)cc2)n2cc[n+](CC(OCc3ccc(Cl)cc3Cl)c3ccc(Cl)cc3Cl)c2)cc1 (stereo not shown) [Calmidazolium]	–	–	–	–	–	–	–	–	0.273
